Several values for one entry are separate records, joined by “and”; a condition that tells them apart may be missing. Identical values can stand only once.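 Dose response: 5 concentrations. Exposure: 48 h. Format: 96-well plates. Endpoint: linear interpolation; highest concentration if not reached. Here, GI50 denotes the concentration required for 50% inhibition of growth. The concentration for full growth arrest is given as TGI.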
Columns and labels:
Assay in all cases: DTP human tumour cell line panel, 48 h
786-0 renal = tested on: 786-0 renal
A498 renal = tested on: A498 renal
A549 NSCLC = tested on: A549 NSCLC
ACHN renal = tested on: ACHN renal
BT-549 breast = tested on: BT-549 breast
CAKI-1 renal = tested on: CAKI-1 renal
CCRF-CEM leukemia = tested on: CCRF-CEM leukemia
COLO 205 colon = tested on: COLO 205 colon
DU-145 prostate = tested on: DU-145 prostate
EKVX NSCLC = tested on: EKVX NSCLC
HCC-2998 colon = tested on: HCC-2998 colon
HCT-116 colon = tested on: HCT-116 colon
HCT-15 colon = tested on: HCT-15 colon
HL-60(TB) leukemia = tested on: HL-60(TB) leukemia
HOP-62 NSCLC = tested on: HOP-62 NSCLC
HOP-92 NSCLC = tested on: HOP-92 NSCLC
HS 578T breast = tested on: HS 578T breast
HT29 colon = tested on: HT29 colon
IGROV1 ovarian = tested on: IGROV1 ovarian
K-562 leukemia = tested on: K-562 leukemia
KM12 colon = tested on: KM12 colon
LOX IMVI melanoma = tested on: LOX IMVI melanoma
M14 melanoma = tested on: M14 melanoma
MALME-3M melanoma = tested on: MALME-3M melanoma
MCF7 breast = tested on: MCF7 breast
MDA-MB-231 breast = tested on: MDA-MB-231 breast
MDA-MB-435 = tested on: MDA-MB-435
MOLT-4 leukemia = tested on: MOLT-4 leukemia
NCI-H226 lung = tested on: NCI-H226 lung
NCI-H23 lung = tested on: NCI-H23 lung
NCI-H460 lung = tested on: NCI-H460 lung
NCI-H522 lung = tested on: NCI-H522 lung
NCI/ADR-RES ovarian = tested on: NCI/ADR-RES ovarian
OVCAR-3 ovarian = tested on: OVCAR-3 ovarian
OVCAR-4 ovarian = tested on: OVCAR-4 ovarian
OVCAR-5 ovarian = tested on: OVCAR-5 ovarian
OVCAR-8 ovarian = tested on: OVCAR-8 ovarian
PC-3 prostate = tested on: PC-3 prostate
RPMI-8226 leukemia = tested on: RPMI-8226 leukemia
SF-268 CNS = tested on: SF-268 CNS
SF-295 CNS = tested on: SF-295 CNS
SF-539 CNS = tested on: SF-539 CNS
SK-MEL-2 melanoma = tested on: SK-MEL-2 melanoma
SK-MEL-28 melanoma = tested on: SK-MEL-28 melanoma
SK-MEL-5 melanoma = tested on: SK-MEL-5 melanoma
SK-OV-3 ovarian = tested on: SK-OV-3 ovarian
SN12C renal = tested on: SN12C renal
SNB-19 CNS = tested on: SNB-19 CNS
SR leukemia = tested on: SR leukemia
SW-620 colon = tested on: SW-620 colon
T-47D breast = tested on: T-47D breast
TK-10 renal = tested on: TK-10 renal
U251 CNS = tested on: U251 CNS
UACC-257 melanoma = tested on: UACC-257 melanoma
UACC-62 melanoma = tested on: UACC-62 melanoma
UO-31 renal = tested on: UO-31 renal
RXF 393 renal = tested on: RXF 393 renal
SNB-75 CNS = tested on: SNB-75 CNS

In the case of `CCN(CCO)CCCOc1ccc2c(Nc3cc(CC(=O)Nc4cccc(F)c4)[nH]n3)ncnc2c1`, the GI50 (786-0 renal) is reported as > 70.1 µM, the TGI (786-0 renal) is reported as > 100 µM and the GI50 (A498 renal) is reported as > 49.1 µM. For the same molecule, the TGI (A498 renal) was > 100 µM, the GI50 (A549 NSCLC) was 20.5 µM and the TGI (A549 NSCLC) was > 100 µM. The GI50 (ACHN renal) was > 100 µM, the TGI (ACHN renal) was > 100 µM and the GI50 (BT-549 breast) was 13 µM. The TGI (BT-549 breast) was 29.7 µM and > 3.6 µM, the GI50 (CAKI-1 renal) was > 36.5 µM and the TGI (CAKI-1 renal) was > 100 µM. The GI50 (CCRF-CEM leukemia) was < 0.01 µM and 0.0047 µM, the TGI (CCRF-CEM leukemia) was 47.9 µM and > 5.1 µM and the GI50 (COLO 205 colon) was 0.034 µM and 0.0244 µM. The TGI (COLO 205 colon) was 1.22 µM, the GI50 (DU-145 prostate) was 34.5 µM and the TGI (DU-145 prostate) was > 100 µM. For the same molecule, the GI50 (EKVX NSCLC) was 84.1 µM, the TGI (EKVX NSCLC) was > 100 µM and the GI50 (HCC-2998 colon) was 20.8 µM. For the same molecule, the TGI (HCC-2998 colon) was 61.9 µM and > 3.75 µM, the GI50 (HCT-116 colon) was 9.63 µM and the TGI (HCT-116 colon) was 34.6 µM and > 10 µM. For the same molecule, the GI50 (HCT-15 colon) was > 100 µM, the TGI (HCT-15 colon) was > 100 µM and the GI50 (HL-60(TB) leukemia) was 13 µM. The TGI (HL-60(TB) leukemia) was 40.4 µM, the GI50 (HOP-62 NSCLC) was 16.3 µM and the TGI (HOP-62 NSCLC) was > 88.6 µM. For the same molecule, the GI50 (HOP-92 NSCLC) was 10.6 µM, the TGI (HOP-92 NSCLC) was 33.3 µM and the GI50 (HS 578T breast) was 8.15 µM. The TGI (HS 578T breast) was > 60.5 µM, the GI50 (HT29 colon) was 13.4 µM and the TGI (HT29 colon) was 66.2 µM and > 10 µM. The GI50 (IGROV1 ovarian) was 26.1 µM, the TGI (IGROV1 ovarian) was > 93.1 µM and the GI50 (K-562 leukemia) was 8.89 µM. For the same molecule, the TGI (K-562 leukemia) was > 78.4 µM, the GI50 (KM12 colon) was 3.45 µM and 0.82 µM and the TGI (KM12 colon) was 16 µM and > 10 µM. The GI50 (LOX IMVI melanoma) was 10.6 µM, the TGI (LOX IMVI melanoma) was 32.2 µM and > 3.26 µM and the GI50 (M14 melanoma) was 20.9 µM. The TGI (M14 melanoma) was > 56.2 µM, the GI50 (MALME-3M melanoma) was 8.04 µM and the TGI (MALME-3M melanoma) was 26.8 µM. For the same molecule, the TGI (MCF7 breast) was 22.5 µM and > 4.11 µM, the GI50 (MDA-MB-231 breast) was 19.2 µM and the TGI (MDA-MB-231 breast) was > 51.5 µM. For the same molecule, the GI50 (MDA-MB-435) was 14.1 µM, the TGI (MDA-MB-435) was 34 µM and the GI50 (MOLT-4 leukemia) was 3.38 µM. The TGI (MOLT-4 leukemia) was > 88.4 µM, the GI50 (NCI-H226 lung) was 23.8 µM and the TGI (NCI-H226 lung) was > 100 µM. The GI50 (NCI-H23 lung) was 17.4 µM, the TGI (NCI-H23 lung) was > 53.1 µM and the GI50 (NCI-H460 lung) was 0.071 µM and 0.0456 µM. For the same molecule, the TGI (NCI-H460 lung) was 21.3 µM and > 3.81 µM, the TGI (NCI-H522 lung) was 37.2 µM and > 4.22 µM and the GI50 (NCI/ADR-RES ovarian) was > 100 µM. For the same molecule, the TGI (NCI/ADR-RES ovarian) was > 100 µM, the GI50 (OVCAR-3 ovarian) was 10.9 µM and the TGI (OVCAR-3 ovarian) was 42.9 µM and > 4.07 µM. For the same molecule, the GI50 (OVCAR-4 ovarian) was 19.4 µM, the TGI (OVCAR-4 ovarian) was > 100 µM and the GI50 (OVCAR-5 ovarian) was 42.3 µM. For the same molecule, the TGI (OVCAR-5 ovarian) was > 100 µM, the GI50 (OVCAR-8 ovarian) was 23.8 µM and the TGI (OVCAR-8 ovarian) was > 100 µM. For the same molecule, the GI50 (PC-3 prostate) was 17.7 µM, the TGI (PC-3 prostate) was > 64.8 µM and the GI50 (RPMI-8226 leukemia) was 15.4 µM. For the same molecule, the TGI (RPMI-8226 leukemia) was 47.8 µM and > 2.17 µM, the GI50 (SF-268 CNS) was 9.62 µM and the TGI (SF-268 CNS) was 32.2 µM and > 10 µM. For the same molecule, the TGI (SF-295 CNS) was > 100 µM, the TGI (SF-539 CNS) was 22.2 µM and > 2.7 µM and the GI50 (SK-MEL-2 melanoma) was 16.9 µM. The TGI (SK-MEL-2 melanoma) was 35.4 µM and > 2.16 µM, the GI50 (SK-MEL-28 melanoma) was 16.4 µM and the TGI (SK-MEL-28 melanoma) was 31.4 µM. For the same molecule, the GI50 (SK-MEL-5 melanoma) was 19.8 µM, the TGI (SK-MEL-5 melanoma) was 48.5 µM and > 3.51 µM and the GI50 (SK-OV-3 ovarian) was 15.6 µM. For the same molecule, the TGI (SK-OV-3 ovarian) was > 57.1 µM, the GI50 (SN12C renal) was 19.8 µM and the TGI (SN12C renal) was > 100 µM. The GI50 (SNB-19 CNS) was 15.4 µM, the TGI (SNB-19 CNS) was > 60.6 µM and the TGI (SR leukemia) was 28 µM and > 3.87 µM. The GI50 (SW-620 colon) was 7.23 µM, the TGI (SW-620 colon) was 29.8 µM and > 4.11 µM and the GI50 (T-47D breast) was 13.9 µM. For the same molecule, the TGI (T-47D breast) was 42.7 µM and > 2.45 µM, the GI50 (TK-10 renal) was > 67.8 µM and the TGI (TK-10 renal) was > 100 µM. For the same molecule, the GI50 (U251 CNS) was 13.7 µM, the TGI (U251 CNS) was 29.4 µM and > 10 µM and the GI50 (UACC-257 melanoma) was 12.4 µM. For the same molecule, the TGI (UACC-257 melanoma) was 29.2 µM and > 2.56 µM, the GI50 (UACC-62 melanoma) was 26.1 µM and the TGI (UACC-62 melanoma) was > 59.3 µM. The GI50 (UO-31 renal) was > 100 µM and the TGI (UO-31 renal) was > 100 µM.
In the case of `O=C(c1ccccc1)N1CCC(Nc2nccs2)O1` (stereo not given), the TGI (786-0 renal) is reported as > 10 µM, the TGI (A549 NSCLC) is reported as > 10 µM and the TGI (ACHN renal) is reported as > 10 µM. The TGI (BT-549 breast) was > 10 µM, the TGI (CAKI-1 renal) was > 10 µM and the TGI (CCRF-CEM leukemia) was > 10 µM. For the same molecule, the TGI (COLO 205 colon) was > 10 µM, the TGI (DU-145 prostate) was > 10 µM and the TGI (EKVX NSCLC) was > 10 µM. For the same molecule, the TGI (HCC-2998 colon) was > 10 µM, the TGI (HCT-116 colon) was > 10 µM and the TGI (HCT-15 colon) was > 10 µM. For the same molecule, the TGI (HL-60(TB) leukemia) was > 10 µM, the TGI (HOP-62 NSCLC) was > 10 µM and the TGI (HS 578T breast) was > 10 µM. For the same molecule, the TGI (HT29 colon) was > 10 µM, the TGI (IGROV1 ovarian) was > 10 µM and the TGI (K-562 leukemia) was > 10 µM. The TGI (LOX IMVI melanoma) was > 10 µM, the TGI (M14 melanoma) was > 10 µM and the TGI (MALME-3M melanoma) was > 10 µM. The TGI (MCF7 breast) was > 10 µM, the TGI (MDA-MB-231 breast) was > 10 µM and the TGI (MDA-MB-435) was > 10 µM. The TGI (MOLT-4 leukemia) was > 10 µM, the TGI (NCI-H226 lung) was > 10 µM and the TGI (NCI-H23 lung) was > 10 µM. The TGI (NCI-H460 lung) was > 10 µM, the TGI (NCI-H522 lung) was > 10 µM and the TGI (NCI/ADR-RES ovarian) was > 10 µM. The TGI (OVCAR-3 ovarian) was > 10 µM, the TGI (OVCAR-4 ovarian) was > 10 µM and the TGI (OVCAR-5 ovarian) was > 10 µM. For the same molecule, the TGI (OVCAR-8 ovarian) was > 10 µM, the TGI (PC-3 prostate) was > 10 µM and the TGI (RPMI-8226 leukemia) was > 10 µM. For the same molecule, the TGI (RXF 393 renal) was > 10 µM, the TGI (SF-268 CNS) was > 10 µM and the TGI (SF-295 CNS) was > 10 µM. The TGI (SF-539 CNS) was > 10 µM, the TGI (SK-MEL-2 melanoma) was > 10 µM and the TGI (SK-MEL-28 melanoma) was > 10 µM. For the same molecule, the TGI (SK-MEL-5 melanoma) was > 10 µM, the TGI (SK-OV-3 ovarian) was > 10 µM and the TGI (SN12C renal) was > 10 µM. For the same molecule, the TGI (SNB-19 CNS) was > 10 µM, the TGI (SNB-75 CNS) was > 10 µM and the TGI (SR leukemia) was > 10 µM. The TGI (SW-620 colon) was > 10 µM, the TGI (T-47D breast) was > 10 µM and the TGI (TK-10 renal) was > 10 µM. For the same molecule, the TGI (UACC-257 melanoma) was > 10 µM and the TGI (UO-31 renal) was > 10 µM.
